Test results from patent US8017585B2, “CXCR4 antagonist and use thereof” (priority 2002, dated 2011).
Bridge positions count the residues as written; N and C are the ends. Square brackets hold non-standard residues; d marks the D form. Peptide text beside a SMILES is read from it. * marks the point of attachment. 2Nal = N[C@@H](Cc1ccc2ccccc2c1)C(=O)O; Benzoyl(4-F) = O=C(c1ccc(F)cc1)*; Cit = NC(=O)NCCC[C@H](N)C(=O)O

Tests used:
[1] = biological target: T1, CXCR4 receptor (Homo sapiens, UniProt P61073); test: Inhibition of 125I-CXCL12 binding to CXCR4 receptor on Jurkat cells; conditions: Table 1, 125I-CXCL12, 1 hour at room temperature, compounds as acetate salt, read-out: IC50 (nM), inhibitory activity against CXCL12 binding to CXCR4 receptor
T1 construct: 50 μL of Jurkat human T-cell leukemia cells (6×10^6 cells/mL) suspended in buffer; endogenous in cells; host or cells: Jurkat human T-cell leukemia cells
T1 sequence (P61073 whole entry): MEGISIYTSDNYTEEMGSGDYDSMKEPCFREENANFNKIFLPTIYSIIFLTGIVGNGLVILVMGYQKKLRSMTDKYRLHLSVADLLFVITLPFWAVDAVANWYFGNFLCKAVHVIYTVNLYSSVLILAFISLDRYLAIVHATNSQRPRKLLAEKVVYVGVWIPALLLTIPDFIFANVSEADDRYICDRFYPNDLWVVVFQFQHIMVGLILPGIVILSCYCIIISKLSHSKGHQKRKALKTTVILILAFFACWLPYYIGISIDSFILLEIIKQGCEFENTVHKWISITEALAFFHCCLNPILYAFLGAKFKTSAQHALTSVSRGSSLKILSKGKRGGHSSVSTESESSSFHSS
Protocol: After reaction, suction was made toward the reaction solution by 96 well GF/C filter plate, and each well's radioactivity was measured by top count. As the radioactivity index of 100% when the test compound was not added, and 0% when 100 nM of non-radioisotope-labeled CXCL12 was added, the inhibitory activity of each test compound was measured.

[2] = test system: mouse splenocytes; conditions: read-out: IC50 value, inhibition of SDF-1-induced migration of mouse splenocytes; SDF-1α 100 ng/mL; 2.5 hours
Protocol: Spleens were isolated from BALB/c mice (male, Charles River Japan, Inc.), converted to single cell suspensions, and splenocytes were prepared by crushing red blood cells.
SDF-1α (Peprotech, final concentration 100 ng/mL) was added to the lower layer of Transwell (pore size 5 μm), 1×10^6/well of the cells (100 μL) were added to the insert, and reacted at 37° C. for 2.5 hours. The cells were incubated with the drug at 37° C. for 30 minutes. Migrating reaction was made in the RPMI-1640 culture media containing 20 mmol/L HEPES, 0.5% BSA. The number of the cells migrated to the lower layer was counted by Coulter Counter. Similarly to the preceding clause, the inhibitory rate against the migration by the drug of each concentration and IC50 value were calculated.

[3] = test system: mouse DTH reaction induced by SRBC; test: Mouse delayed-type hypersensitivity reaction (DTH) induced by SRBC; assay type: in vivo, BALB/c mice; conditions: Alzet osmotic pump
Protocol: Preserved blood of sheep was purchased from Nippon Bio-Supp. Center. The preserved sheep blood was cleansed twice in physiological saline solution, suspended in physiological saline solution, and used as sheep red blood cells (SRBC). As OD541 nm value of oxyhemoglobin at the time of hemolyzation of 1.0×10^9 cells/mL of the SRBC suspension by 14 parts distilled water is considered to be nearly 0.700, SRBC density was accordingly fixed.
2×10^7 cells/50 μl of SRBC were administered subcutaneously to the ankles of the left hindlimbs of BALB/c mice (male, 6 week-old, Charles River Japan, Inc.) and sensitized. After 5 days, 10^8 cells/50 μl of SRBC were administered subcutaneously to the ankles of the right hindlimbs and DTH reaction was induced. Immediately prior to and 24 hours after the induction of antigens, the thickness of the ankles of the right hindlimbs was measured by a digital micrometer (Mitutoyo Corporation CD-15B), and the increase (mm) in the thickness of ankles was adopted as the indicator of DTH reaction.
4Fbenzoyl-TN14003 was dissolved to PBS, and continuously administered using Alzet osmotic pumps (Alza, 0.5 μL/hr, 7 days persistent type). The osmotic pumps were implanted intradermally to the backs under ether anesthesia on the day before the sensitization. As the control, pumps injected with PBS were similarly implanted. 4F-benzoyl-TN14003 was administered at the doses of 4.8, 24 and 120 μg/day.
Data were expressed as mean value±standard margin of error (n=7). By Williams test, p≦0.025 was valued as significant.

[4] = test system: mouse collagen-induced arthritis; test: Mouse collagen-induced arthritis; assay type: in vivo, DBA/1JN mouse; conditions: 120 μg/day, Alzet osmotic pump, 2 weeks
Protocol: FK-506 was purified by a known method (Kino T. et al., J. Antibiot., 1987 40(9): 1249-55). […] For 2 weeks after the additional immunization, body weights and hindlimb thickness were measured and arthritis scoring was made. Arthritis scores were scored at 0-3 points of each limb, and evaluated by the total of the same (12 points being the full points; 0, normal; 1, mild swelling or swelling of a single digit; 2, moderate swelling or swelling of plural digits; 3, severe swelling). Two weeks after the immunization, four limbs and sera were picked. After coat blocking bovine type II collagen (10 μg/mL PBS solution) on the immunoplate, 100 μL of 1000 times diluted mouse serum was added, and kept at room temperature for 2 hours. After cleansing, anti-mouse IgG2a antibody (1000 times dilution) was added. After cleansing, TMB was added, kept at room temperature for 30 minutes, H2SO4 of equal amount was added, and A450 nm was measured. Indomethacin (1 mg/kg), methotrexate (3 mg/kg) and FK-506 (10 mg/kg) were suspended to 0.5% methyl cellulose, and orally administered every day for 2 weeks from the day of the additional immunization at the dose of 0.1 mL/10 g body weight. 0.5% methyl cellulose solution of the equal dose was orally administered to the control group. 4Fbenzoyl-TN14003 was dissolved to PBS, and continuously administered using Alzet osmotic pumps (Alza, 0.5 μL/hr 2 weeks). The osmotic pumps were implanted intradermally to the backs of the mice under ether anesthesia on the day before the additional immunization. As the control, pumps injected with PBS were similarly implanted. Evaluation of each drug was made for the value obtained 2 weeks after the additional immunization. Data were expressed as mean value±standard margin of error (n=8-12). Comparison between 2 groups was made by Student's t-test, p≦0.05 was valued as significant. Multiple comparison was made by Dunnett test, p≦0.05 was valued as significant.

[5] = test system: MDA-MB-231 human breast cancer cells; test: Anti-metastatic activity, MDA-MB-231 cells implanted i.v. in SCID mice, lung metastasis; assay type: in vivo, CB-17 SCID mice; conditions: 18.2 mg/kg/day by Alzet osmotic pump, 28 days after implantation
Protocol: MDA-MB-231 human breast cancer cells (10^6 cells) were implanted intravenously into the tails of five week-old female CB-17 SCID mice (Crea Japan, Inc.). 4Fbenzoyl-TN-14003 was prepared at 80 mg/mL in physiologic saline solution, was included into sustained-releasing osmotic pumps (Alzet pump, Alza Corporation, usable for 2 week sustained-release; the dose was equivalent to 18.2 mg/kg/day), and was intradermally loaded to the backs of the mice on the date immediately preceding the implantation. Further, 14 days after the implantation, Alzet pumps containing an equal dose of the drug were additionally loaded. To the control group, Alzet pumps injected with physiological saline solution were additionally loaded. 28 days after the implantation, the mice were dissected, about 2 mL of 0.2% Evans' Blue solution was injected through windpipes, and lungs were stained. The lungs were taken out, soaked in Bouin's liquid, stained and fixed. […] In the lungs of the control group, the yellow stained portions were evenly seen, and lung metastasis was observed. On the other hand, in the 4Fbenzoyl-TN-14003 administration group, yellow stained specimens were less.

[6] = test system: SUP-T1 cells; test: Inhibition of CXCL12-induced T-cell derived leukemia cell migration (Transwell); assay type: cell-based, human; conditions: 10 nM of the antagonist; 30 nM CXCL12; 4 hours
Protocol: 30 nM of CXCL12 (R&D System Company) and 600 μL/well of buffer-A (0.1% bovine serum albumin, DMEM (GibcoBRL) containing 12 mM HEPES) containing the test compound were added to the lower chamber of Transwell filter (polycarbonate filter, 8 μm diameter, Costar Company). The test compound and human cell-derived leukemia SUP-T1 cells (purchased from American Tissue Culture Collection), and 100 μL/well of buffer A containing 2×10^6 cells/mL were added to the upper chamber. After 4 hours' incubation at 37° C. in 5% CO2 incubator, the number of the cells moved to the lower chamber was counted by Coulter counter. Control (−) indicates the migration when CXCL12 was not added. Control (+) indicates the migration when CXCL12 was added. By adding CXCL12, the migration of SUP-T1 cells was enhanced. This CXCL12-induced migration of SUP-T1 cells was inhibited by 10 nM of the antagonist, 4Fbenzoyl-TN-14003. From the foregoing, 4Fbenzoyl-TN-14003, by inhibiting the movement of T-cells at low concentrations, is considered to be useful as an inhibitory drug for chronic rheumatoid arthritis.

With N=C(N)NCCC[C@H](NC(=O)[C@@H]1CSSC[C@H](NC(=O)[C@H](Cc2ccc3ccccc3c2)NC(=O)[C@H](CCCNC(=N)N)NC(=O)[C@H](CCCNC(=N)N)NC(=O)c2ccc(F)cc2)C(=O)N[C@@H](Cc2ccc(O)cc2)C(=O)N[C@@H](CCCNC(N)=O)C(=O)N[C@@H](CCCCN)C(=O)N[C@H](CCCCN)C(=O)N2CCC[C@H]2C(=O)N[C@@H](Cc2ccc(O)cc2)C(=O)N[C@@H](CCCNC(=N)N)C(=O)N[C@@H](CCCNC(N)=O)C(=O)N1)C(N)=O [4F-benzoyl-TN14003, 4F-benzoyl-Arg-Arg-Nal-Cys-Tyr-Cit-Lys-DLys-Pro-Tyr-Arg-Cit-Cys-Arg-NH2] ({Benzoyl(4-F)}-RR[2Nal]CY[Cit]K[dK]PYR[Cit]CR-NH2; disulfide 4-13) the IC50 [1] was 0.99 nM, the IC50 [2] was 0.54 nM and the “inhibitory rate of footpad edema (DTH)” value ([3]; 4.8 μg/day) was 9%. The “inhibitory rate of footpad edema (DTH)” value ([3]; 24 μg/day) was 31%, the “inhibitory rate of footpad edema (DTH)” value ([3]; 120 μg/day) was 51% and the arthritis score [4] was “significant inhibitory activity”. For the same compound, the body weight loss [4] was “significant inhibitory activity”, the hindlimb swelling [4] was “significant inhibitory activity” and the “increase of anti-type II collagen specific IgG2a antibody value” [4] was “inhibitory tendency”. The “lung metastasis (eye observation of metastatic focus)” value [5] was “the metastasis was inhibited” and the “CXCL12-induced migration of SUP-T1 cells” value [6] was “inhibited”.
